Source: patent US12559492B2, “BRAF degraders” (C4 Therapeutics, Inc., priority 2020, dated 2026)

Target: BRAF^V600E protein (Homo sapiens, UniProt P15056, V600E)
Experiment: HiBiT cellular BRAF V600E degradation assay
Format: cell-based
Details: 24 h incubation; for DC50: A375.10 cells (HiBiT tag knocked in at N-terminal of BRAF V600E), concentration at which 50% of total cellular BRAF V600E is degraded; for Emax: A375.10 cells, Emax = amount of residual protein remaining in the cell after compound treatment, read-out: HiBit 24 h Emax

Sequence of BRAF^V600E protein (P15056 whole entry V600E): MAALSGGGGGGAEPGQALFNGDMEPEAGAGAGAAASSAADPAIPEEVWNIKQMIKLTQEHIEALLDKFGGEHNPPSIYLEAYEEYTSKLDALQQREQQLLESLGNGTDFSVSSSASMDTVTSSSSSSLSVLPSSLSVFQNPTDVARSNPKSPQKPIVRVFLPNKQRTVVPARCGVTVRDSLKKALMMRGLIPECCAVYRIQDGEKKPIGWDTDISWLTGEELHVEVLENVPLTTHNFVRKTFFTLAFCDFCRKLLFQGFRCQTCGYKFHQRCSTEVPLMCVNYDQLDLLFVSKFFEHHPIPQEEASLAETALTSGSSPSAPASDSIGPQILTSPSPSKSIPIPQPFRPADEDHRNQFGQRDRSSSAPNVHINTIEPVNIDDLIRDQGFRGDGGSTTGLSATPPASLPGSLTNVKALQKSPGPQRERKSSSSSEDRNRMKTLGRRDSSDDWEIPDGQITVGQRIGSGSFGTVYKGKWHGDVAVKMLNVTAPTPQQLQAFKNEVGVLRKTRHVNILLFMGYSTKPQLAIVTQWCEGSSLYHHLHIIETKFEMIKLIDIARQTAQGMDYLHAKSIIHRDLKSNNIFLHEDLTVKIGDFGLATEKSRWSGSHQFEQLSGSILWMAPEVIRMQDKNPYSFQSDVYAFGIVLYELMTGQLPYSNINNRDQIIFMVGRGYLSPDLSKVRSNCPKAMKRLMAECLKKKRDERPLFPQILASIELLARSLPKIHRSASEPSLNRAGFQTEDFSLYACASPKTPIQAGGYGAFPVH

Row | Compound | DC50 [nM] | Emax [%]
1 | CCN(C)S(=O)(=O)Nc1ccc(F)c(C(=O)c2c[nH]c3ncc(-c4ccc(N5CCN(CCN6CCC(c7ccc(OC8CCC(=O)NC8=O)cc7)CC6)CC5)nc4)cc23)c1F (stereo not drawn) [Example 144, 5-[6-[4-[2-[4-[4-[(2,6-dioxo-3-piperidyl)oxy]phenyl]-1-piperidyl]ethyl]piperazin-1-yl]-3-pyridyl]-3-[3-[[ethyl(methyl)sulfamoyl]amino]-2,6-difluoro-benzoyl]-1H-pyrrolo[2,3-b]pyridine] | 16.1 | 15.6
2 | CCN(C)S(=O)(=O)Nc1ccc(F)c(C(=O)c2c[nH]c3ncc(-c4cnc(N5CCN(CCN6CCC(c7ccc(NC8CCC(=O)NC8=O)cc7)CC6=O)CC5)nc4)cc23)c1F (stereo not drawn) [Example 146, 5-[2-[4-[2-[4-[4-[(2,6-dioxo-3-piperidyl)amino]phenyl]-2-oxo-1-piperidyl]ethyl]piperazin-1-yl]pyrimidin-5-yl]-3-[3-[[ethyl(methyl)sulfamoyl]amino]-2,6-difluoro-benzoyl]-1H-pyrrolo[2,3-b]pyridine] | 14.4 | 9.32
3 | CCN(C)S(=O)(=O)Nc1ccc(F)c(C(=O)c2c[nH]c3ncc(-c4ccc(N5CCN(CCN6CCC(c7ccc(OC8CCC(=O)NC8=O)cc7)CC6)C(=O)C5)nc4)cc23)c1F (stereo not drawn) [Example 147, 5-[6-[4-[2-[4-[4-[(2,6-dioxo-3-piperidyl)oxy]phenyl]-1-piperidyl]ethyl]-3-oxo-piperazin-1-yl]-3-pyridyl]-3-[3-[[ethyl(methyl)sulfamoyl]amino]-2,6-difluoro-benzoyl]-1H-pyrrolo[2,3-b]pyridine] | 17.2 | 14.6
4 | CCN(C)S(=O)(=O)Nc1ccc(F)c(C(=O)c2c[nH]c3ncc(-c4ccc(N5CCN(CCC6CCN(c7ccc(NC8CCC(=O)NC8=O)cc7)CC6)C(=O)C5)nc4)cc23)c1F (stereo not drawn) [Example 148, 5-[6-[4-[2-[1-[4-[(2,6-dioxo-3-piperidyl)amino]phenyl]-4-piperidyl]ethyl]-3-oxo-piperazin-1-yl]-3-pyridyl]-3-[3-[[ethyl(methyl)sulfamoyl]amino]-2,6-difluoro-benzoyl]-1H-pyrrolo[2,3-b]pyridine] | 19.8 | 13.9
5 | CCN(C)S(=O)(=O)Nc1ccc(F)c(C(=O)c2c[nH]c3ncc(-c4cnc(N5CCC(O)(CCN6CCC(c7ccc(NC8CCC(=O)NC8=O)cc7)CC6)CC5)nc4)cc23)c1F (stereo not drawn) [Example 149, 5-[2-[4-[2-[4-[4-[(2,6-dioxo-3-piperidyl)amino]phenyl]-1-piperidyl]ethyl]-4-hydroxy-1-piperidyl]pyrimidin-5-yl]-3-[3-[[ethyl(methyl)sulfamoyl]amino]-2,6-difluoro-benzoyl]-1H-pyrrolo[2,3-b]pyridine] | 9.25 | 10.6
6 | CCN(C)S(=O)(=O)Nc1ccc(F)c(C(=O)c2c[nH]c3ncc(-c4cnc(N5CCc6c(CN7CCC(c8ccc(NC9CCC(=O)NC9=O)cc8)CC7)cccc6C5)nc4)cc23)c1F (stereo not drawn) [Example 150, 5-[[4-[4-[(2,6-dioxo-3-piperidyl)amino]phenyl]-1-piperidyl]methyl]-2-[5-[3-[3-[[ethyl(methyl)sulfamoyl]amino]-2,6-difluoro-benzoyl]-1H-pyrrolo[2,3-b]pyridin-5-yl]pyrimidin-2-yl]-3,4-dihydro-1H-isoquinoline] | 32.8 | 13.3
7 | CCN(C)S(=O)(=O)Nc1ccc(F)c(C(=O)c2c[nH]c3ncc(-c4cnc(N5CC6(CC(N7CCC(c8ccc(NC9CCC(=O)NC9=O)cc8)CC7)C6)C5)nc4)cc23)c1F (stereo not drawn) [Example 151, 5-[2-[6-[4-[4-[(2,6-dioxo-3-piperidyl)amino]phenyl]-1-piperidyl]-2-azaspiro[3.3]heptan-2-yl]pyrimidin-5-yl]-3-[3-[[ethyl(methyl)sulfamoyl]amino]-2,6-difluoro-benzoyl]-1H-pyrrolo[2,3-b]pyridine] | 1.85 | 6.38
8 | CCN(C)S(=O)(=O)Nc1ccc(F)c(C(=O)c2c[nH]c3ncc(-c4cnc(N5CCC(n6cc7c(n6)CCN(c6ccc(NC8CCC(=O)NC8=O)cc6)C7)CC5)nc4)cc23)c1F (stereo not drawn) [Example 152, 5-[4-[(2,6-dioxo-3-piperidyl)amino]phenyl]-2-[1-[5-[3-[3-[[ethyl(methyl)sulfamoyl]amino]-2,6-difluoro-benzoyl]-1H-pyrrolo[2,3-b]pyridin-5-yl]pyrimidin-2-yl]-4-piperidyl]-6,7-dihydro-4H-pyrazolo[4,3-c]pyridine] | 16.6 | 11.9
9 | CCN(C)S(=O)(=O)Nc1cccc(C(=O)c2c[nH]c3ncc(-c4ccc(N5CCN(C(=O)NC6CCN(c7ccc(NC8CCC(=O)NC8=O)cc7F)CC6)CC5)nc4)cc23)c1F (stereo not drawn) [Example 154, N-[1-[4-[(2,6-dioxo-3-piperidyl)amino]-2-fluoro-phenyl]-4-piperidyl]-4-[5-[3-[3-[[ethyl(methyl)sulfamoyl]amino]-2-fluoro-benzoyl]-1H-pyrrolo[2,3-b]pyridin-5-yl]-2-pyridyl]piperazine-1-carboxamide] | 2.94 | 8.25
10 | CCN(C)S(=O)(=O)Nc1ccc(F)c(C(=O)c2c[nH]c3ncc(-c4ccc(N5CCN(C(=O)CC6(O)CCN(c7ccc(NC8CCC(=O)NC8=O)cc7F)CC6)CC5)cc4)cc23)c1Cl (stereo not drawn) [Example 155, 3-[2-chloro-3-[[ethyl(methyl)sulfamoyl]amino]-6-fluoro-benzoyl]-5-[4-[4-[2-[1-[4-[(2,6-dioxo-3-piperidyl)amino]-2-fluoro-phenyl]-4-hydroxy-4-piperidyl]acetyl]piperazin-1-yl]phenyl]-1H-pyrrolo[2,3-b]pyridine] | 6.33 | 10.9
11 | CCN(C)S(=O)(=O)Nc1cccc(C(=O)c2c[nH]c3ncc(-c4ccc(N5CCN(C(=O)CC6(O)CCN(c7ccc(NC8CCC(=O)NC8=O)cc7Cl)CC6)CC5)nc4)cc23)c1F (stereo not drawn) [Example 156, 5-[6-[4-[2-[1-[2-chloro-4-[(2,6-dioxo-3-piperidyl)amino]phenyl]-4-hydroxy-4-piperidyl]acetyl]piperazin-1-yl]-3-pyridyl]-3-[3-[[ethyl(methyl)sulfamoyl]amino]-2-fluoro-benzoyl]-1H-pyrrolo[2,3-b]pyridine] | 6.82 | 9.35
12 | CCN(C)S(=O)(=O)Nc1ccc(F)c(C(=O)c2c[nH]c3ncc(-c4cnc(N5CCN(C(=O)CC6(O)CCN(c7ccc(NC8CCC(=O)NC8=O)cc7Cl)CC6)CC5)nc4)cc23)c1F (stereo not drawn) [Example 157, 5-[2-[4-[2-[1-[2-chloro-4-[(2,6-dioxo-3-piperidyl)amino]phenyl]-4-hydroxy-4-piperidyl]acetyl]piperazin-1-yl]pyrimidin-5-yl]-3-[3-[[ethyl(methyl)sulfamoyl]amino]-2,6-difluoro-benzoyl]-1H-pyrrolo[2,3-b]pyridine] | 6.19 | 8.52
13 | CCN(C)S(=O)(=O)Nc1ccc(F)c(C(=O)c2c[nH]c3ncc(-c4cnc(N5CCN(C(=O)CC6(OP(=O)(O)O)CCN(c7ccc(C8CCC(=O)NC8=O)cc7F)CC6)CC5)nc4)cc23)c1F (stereo not drawn) [Example 158e, [1-[4-(2,6-dioxo-3-piperidyl)-2-fluoro-phenyl]-4-[2-[4-[5-[3-[3-[[ethyl(methyl)sulfamoyl]amino]-2,6-difluoro-benzoyl]-1H-pyrrolo[2,3-b]pyridin-5-yl]pyrimidin-2-yl]piperazin-1-yl]-2-oxo-ethyl]-4-piperidyl]dihydrogen phosphate] | 10.8 | 11.7
14 | CCN(C)S(=O)(=O)Nc1cccc(C(=O)c2c[nH]c3ncc(-c4ccc(N5CCN(C(=O)CC6(O)CCN(c7ccc(C8CCC(=O)NC8=O)cc7F)CC6)CC5)nc4)cc23)c1F (stereo not drawn) [Example 159, 5-[6-[4-[2-[1-[4-(2,6-dioxo-3-piperidyl)-2-fluoro-phenyl]-4-hydroxy-4-piperidyl]acetyl]piperazin-1-yl]-3-pyridyl]-3-[3-[[ethyl(methyl)sulfamoyl]amino]-2-fluoro-benzoyl]-1H-pyrrolo[2,3-b]pyridine] | 3.51 | 6.33
15 | CCN(C)S(=O)(=O)Nc1ccc(F)c(C(=O)c2c[nH]c3ncc(-c4ccc(N5CCN(C(=O)CC6(O)CCN(c7ccc(C8CCC(=O)NC8=O)cc7F)CC6)CC5)nc4)cc23)c1F (stereo not drawn) [Example 160, 5-[6-[4-[2-[1-[4-(2,6-dioxo-3-piperidyl)-2-fluoro-phenyl]-4-hydroxy-4-piperidyl]acetyl]piperazin-1-yl]-3-pyridyl]-3-[3-[[ethyl(methyl)sulfamoyl]amino]-2,6-difluoro-benzoyl]-1H-pyrrolo[2,3-b]pyridine] | 3.12 | 6.7
16 | CCN(C)S(=O)(=O)Nc1ccc(F)c(C(=O)c2c[nH]c3ncc(-c4cnc(N5CCC(n6cc7c(n6)CN(c6ccc(NC8CCC(=O)NC8=O)cc6)CC7)CC5)nc4)cc23)c1F (stereo not drawn) [Example 161, 6-[4-[(2,6-dioxo-3-piperidyl)amino]phenyl]-2-[1-[5-[3-[3-[[ethyl(methyl)sulfamoyl]amino]-2,6-difluoro-benzoyl]-1H-pyrrolo[2,3-b]pyridin-5-yl]pyrimidin-2-yl]-4-piperidyl]-5,7-dihydro-4H-pyrazolo[3,4-c]pyridine] | 14.6 | 8.46
17 | CCN(C)S(=O)(=O)Nc1cccc(C(=O)c2c[nH]c3ncc(-c4cnc(N5CCN(C(=O)CC6(O)CCN(c7ccc(C8CCC(=O)NC8=O)cc7F)CC6)CC5)nc4)cc23)c1F (stereo not drawn) [Example 162, 5-[2-[4-[2-[1-[4-(2,6-dioxo-3-piperidyl)-2-fluoro-phenyl]-4-hydroxy-4-piperidyl]acetyl]piperazin-1-yl]pyrimidin-5-yl]-3-[3-[[ethyl(methyl)sulfamoyl]amino]-2-fluoro-benzoyl]-1H-pyrrolo[2,3-b]pyridine] | 2.09 | 7.81
18 | CCN(C)S(=O)(=O)Nc1ccc(F)c(C(=O)c2c[nH]c3ncc(-c4cnc(N5CCN(C(=O)CC6(O)CCN(c7ccc8c(N9CCC(=O)NC9=O)nn(C)c8c7)CC6)CC5)nc4)cc23)c1F [Example 163, 3-(2,4-dioxohexahydropyrimidin-1-yl)-6-[4-[2-[4-[5-[3-[3-[[ethyl(methyl)sulfamoyl]amino]-2,6-difluoro-benzoyl]-1H-pyrrolo[2,3-b]pyridin-5-yl]pyrimidin-2-yl]piperazin-1-yl]-2-oxo-ethyl]-4-hydroxy-1-piperidyl]-1-methyl-indazole] | 4.52 | 9.67
